Values of other authors, collected in US20110306626A1, “IMIDAZOLINONE DERIVATIVES AS CGRP RECEPTOR ANTAGONISTS” (priority 2008, published 2011).
Ends that are not written are not given here.

Key:
facial blood flow [1] = conditions: marmoset, electrical stimulation of the trigeminal ganglion (Doods et al. 2000)
[2] = system: acute attacks of migraine; conditions: clinical trials (Olesen et al. 2004)
[3] = system: headache induced by CGRP infusion; conditions: control group (Petersen et al. 2005)
middle meningeal artery = conditions: rats, electrical stimulation of the dura mater, prior administration (Williamson et al. 1997)
facial blood flow [4] = conditions: rat, trigeminal ganglion stimulation (Escott et al. 1995)

Row | Molecule | increase in facial blood flow (facial blood flow [1]) | treatment of acute attacks of migraine [2] | prevention of headache induced by CGRP infusion [3] | increase of the diameter of the middle meningeal artery (middle meningeal artery) | increase of facial blood flow (facial blood flow [4])
1 | NCCCC[C@H](NC(=O)[C@@H](Cc1cc(Br)c(O)c(Br)c1)NC(=O)N1CCC(N2Cc3ccccc3NC2=O)CC1)C(=O)N1CCN(c2ccncc2)CC1 [BIBN4096BS] | could be blocked | effective in treating acute attacks of migraine | able to prevent headache induced by CGRP infusion | – | –
2 | CGRP(8-37): a peptide CGRP antagonist; fragment of CGRP that lacks seven N-terminal amino acid residues (VTHRLAGLLSRSGGVVKNNFVPTNVGSKAF; ends and bridges not checked; UniProt P06881 90-119, looked up, fragment) | – | – | – | blocked | inhibited
